The results in this text go back to US9913468B2, “Microbicidal composition” (Dow Global Technologies LLC, priority 2013, dated 2018).

Like-named read-outs stand apart in the source and are kept apart here. Some results are limits rather than exact numbers.

Format in all cases: cell-based
The test system of assay [1] is any organism tested (Pseudomonas aeruginosa, Staphylococcus aureus, Candida albicans, Aspergillus niger). Kind of assay: Synergy of other biocides paired with the surfactants, any organism tested. The following applies: listed under Surf. D; except for one data point. Here is the method: (§1) Surfactants and biocides were evaluated for synergy by determining the synergy index (S.I.) of the combination. Synergy index was calculated based on minimum inhibitory concentrations (MIC) of two antimicrobial compounds (A and B) alone and in combinations. The tests organisms were Gram negative bacteria (Pseudomonas aeruginosa ATCC #15442), Gram positive bacteria (Staphylococcus aureus ATCC #6538), yeast (Candida albicans ATCC#10203) and mold (Aspergillus niger ATCC#16404). Contact time for the bacteria was 24 and 48 hours, yeast was 48 and 72 hrs, and 3 and 7 days for mold. The test was carried out in 96 well microtiter plates. R^1O(CH2CH(CH3)O)5(CH2CH2O)9H, where R^1 is 2-ethylhexyl Surf. A R^2O(CH2CH(CH3)O)3(CH2CH2O)5H Surf. D R^2O(CH2CH(CH3)O)3(CH2CH2O)7H Surf. E In Surf. D and Surf. E, R^2 is a mixture of C8-C14 linear alkyl groups (70% C8-C10 linear alkyl and 30% C12-C14 linear alkyl) Inoculums Used
(§2) SI is calculated as follows: Ca/CA+Cb/CB=Synergy Index (“SI”) Wherein: • CA=concentration of compound A in ppm, acting alone, which produced an end point (MIC of Compound A). • Ca=concentration of compound A in ppm, in the mixture, which produced an end point. • CB=concentration of compound B in ppm, acting alone, which produced an end point (MIC of Compound B). • Cb=concentration of compound B in ppm, in the mixture, which produced an end point. […]

Assay [2] concerns Pseudomonas aeruginosa ATCC #15442. The assay is described as follows: MIC / synergy index test in 96 well microtiter plates, Gram negative bacteria. Particulars: ATCC15442, 24 h, read-out: MIC alone, CB (compound B). Here is the method:
as §1, with “Used […]” for “Used”
as §2

In assay [3] the test system is Candida albicans ATCC#10203. Kind of assay: MIC / synergy index test in 96 well microtiter plates, yeast. The following applies: C. albicans, PDB; for MIC: Candida albicans, ATCC10203, 48 h, DTEA alone, read-out: MIC alone, CB (compound B). Here is the method: as §1
(§3) The pH of the Triptic soy broth was 7.3 and the Potato dextrose broth was 5.1.
(§4) SI is calculated as follows: Ca/CA+Cb/CB=Synergy Index (“SI”) Wherein: • CA=concentration of compound A in ppm, acting alone, which produced an end point (MIC of Compound A). • Ca=concentration of compound A in ppm, in the mixture, which produced an end point. • CB=concentration of compound B in ppm, acting alone, which produced an end point (MIC of Compound B). • Cb=concentration of compound B in ppm, in the mixture, which produced an end point. When the sum of Ca/CA and Cb/CB is greater than one, antagonism is indicated.

The subject of assay [4] is Staphylococcus aureus ATCC #6538. Kind of assay: MIC / synergy index test in 96 well microtiter plates, Gram positive bacteria. The following applies: S. aureus, 1/10 TSB; for MIC: Staphylococcus aureus, ATCC6538, 24 h, DTEA alone, read-out: MIC alone, CB (compound B). Here is the method:
as §1, §3, §4

Assay [5] concerns Aspergillus niger ATCC#16404. Kind of assay: MIC / synergy index test in 96 well microtiter plates, mold. The following applies: 3rd day, PDB; for MIC: Aspergillus niger, ATCC16404, DTEA alone, A. niger, read-out: MIC alone, CB (compound B). The protocol:
as §1, §3, §4

The mark [6] stands for this setting: inoculum 1.156E+06, Surf. A series.

Regarding `CCCCNC(=O)OCC#CI` [IPBC], in assay [1], the “Ratio of surfactant to biocide where synergy was observed” value is recorded as “synergistic only at 1:0.05 or worse”.

What is called MIC is the lowest concentration that inhibits growth of the organism. On to `CCCCCCCCCCSCCN` [DTEA, 2-decylthioethylamine], for which the MIC in assay [2] was 20 µg/mL; in assay [3] (setting [6]) it was 50 µg/mL; in assay [3] (inoculum 1.8E+06, Surf. E series), 50 µg/mL; in assay [3] (inoculum 5.72E+05, Surf. D series) it was 40 µg/mL; in assay [4] (setting [6]), 4 µg/mL; in assay [4] (inoculum 1.156E+06, Surf. E series), 5 µg/mL. Further, the MIC came to 5 µg/mL in assay [4] (inoculum 1.8E+05, Surf. D series); 200 µg/mL in assay [5] (setting [6]); 100 µg/mL in assay [5] (inoculum 1.156E+06, Surf. D series); 200 µg/mL in assay [5] (inoculum 1.56E+06, Surf. E series).

Consider “R^1O(CH2CH(CH3)O)5(CH2CH2O)9H, where R^1 is 2-ethylhexyl [Surf. A]”, for which the “MIC alone, CA (compound A)” value is >20000 ppm in assay [3] (Surf. A alone, 48 hrs, inoculum 1.156E+06); >20000 ppm in assay [4] (Surf. A alone, 24 hrs, inoculum 1.156E+06); >20000 ppm in assay [5] (Surf. A alone, inoculum 1.156E+06).

Consider `Cn1sc2ccccc2c1=O` [MBIT], for which the “Ratio of surfactant to biocide where synergy was observed” value in assay [1] was “synergistic only at 1:0.05 or worse”.
